Measurements reported in patent publication US20170000749A1, “Methods for Treating Cognitive Disorders Using Inhibitors of Histone Deacetylase” (Forum Pharmaceuticals, Inc., priority 2008, published 2017).
Like-named read-outs stand apart in the source and are kept apart here.

What was measured:
[1] = tested on: HDAC activity in primary mouse cortical cultures; experiment: Whole-Cell Histone Deacetylase (HDAC) Inhibition Assay in Primary Mouse Cortical Cultures; assay type: cell-based; conditions: whole-cell (WC), mouse cortical neurons, read-out: HDAC Inhibition (IC50 μM) WC mouse cortical neurons
Protocol: Primary neocortical cultures are established through the dissection of the neocortex from E17 embryos harvested from time-pregnant Balb/C mice. Following dissection, the neocortical tissue specimens undergo digestion by incubation at 37° C. for 10 minutes in dissection medium (1×HBSS/10 mM HEPES/1 mM Sodium Pyruvate) supplemented with (0.25%) Trypsin and (0.1%) DNase I. Digested tissue is washed and resuspended in plating medium (NeuroBasal/10% HS/0.5 mM L-Glutamine (Invitrogen Corporation)) for trituration. Additional plating medium is added, and the contents are passed over a 70 um cell-strainer. The cell-density is quantified using a hemacytometer, and dilutions are made to allow for the plating of 50000 cells/well/100 uL in 96-well PDL-coated plates. Plates are incubated for 4-5 hours in 37° C./5% CO2-incubator, after which time the entire volume is exchanged to feeding medium (NeuroBasal/2% B-27 Serum-free supplement/0.5 mM L-Glutamine/1% Penicillin-Streptomycin (Invitrogen Corporation)). The cultures undergo two 50% fresh feeding medium exchanges at 3 days in vitro (DIV3), and again at DIV7.
Compounds for testing are resuspended in dimethyl sulphoxide (DMSO), and further diluted in DMSO for a ten-point dose-response curve, with appropriate controls. Each master plate is assayed in triplicate. […] Three DIV9 culture plates are leveled to 50 uL/well, onto which each has overlaid 50 uL/well of the diluted daughter plate. The plates are returned to the 37° C./5% CO2-incubator for 16-18 hours.
The next step of the assay involves the exposure of a HDAC colorimetric substrate, comprising an acetylated lysine side chain, to the compound-treated neuronal cultures. Based on the ability of the compound to inhibit HDAC activity in the neuronal cultures, the substrate is deacetylated by HDACs, and subsequently sensitized. […] Compound-incubated culture plates are again leveled to 50 uL/well and 2 uL/well of 7.5 mM BOC-Lys (Ac)-AMC substrate is added and thoroughly mixed. Plates are returned to the 37° C./5% CO2-incubator for 1 hour.
The final addition to the culture plates entails treatment with a Fluor de Lys™-based developer (BIOMOL Research Laboratories, Inc.) to produce a fluorophore, which is analyzed using a spectrophotometer. The developer solution (1×Fluor de Lys™/1% NP-40/1 uM TSA in HDAC Buffer Solution) is prepared, and 50 uL/well is added to each of the wells of the culture plates. […] The plates are returned to the 37° C./5% CO2-incubator for 10-15 minutes, after which time, they are removed and set in the dark at room temperature for 5-10 minutes.
Primary neocortical cultures were established through the dissection of the neocortex from E17 embryos harvested from time-pregnant Balb/C mice. Following dissection, the neocortical tissue specimens underwent digestion by incubation at 37° C. for 10 minutes in dissection medium (1×HBSS/10 mM HEPES/1 mM Sodium Pyruvate) supplemented with (0.25%) Trypsin and (0.1%) DNase I. Digested tissue was washed and resuspended in plating medium (NeuroBasal/10% HS/0.5 mM L-Glutamine (Invitrogen Corporation)) for trituration. Additional plating medium was added, and the contents passed over a 70 um cell-strainer. The cell-density was quantified using a hemacytometer, and dilutions made to allow for the plating of 50000 cells/well/100 uL in 96-well PDL-coated plates. Plates were incubated for 4-5 hours in 37° C./5% CO2-incubator, after which time the entire volume was exchanged to feeding medium (NeuroBasal/2% B-27 Serum-free supplement/0.5 mM L-Glutamine/l % Penicillin-Streptomycin (Invitrogen Corporation)). The cultures underwent two 50% fresh feeding medium exchanges at 3 days in vitro (DIV3), and again at DIV7.
Compounds for testing were resuspended in dimethyl sulphoxide (DMSO), and further diluted in DMSO for a ten-point dose-response curve, with appropriate controls. Each master plate was assayed in triplicate.

[2] = molecular target: one or more of HDAC-1, HDAC-2, HDAC-3, HDAC-4, HDAC-5, HDAC-6, HDAC-7, HDAC-8, HDAC-9, HDAC-10 and HDAC-11; experiment: Inhibition of Histone Deacetylase Enzymatic Activity (Boc-Lys(Ac)-AMC substrate, Fluor-de-Lys developer); assay type: biochemical; conditions: read-out: HDAC Inhibition (IC50 μM) HDAC Enzyme
Protocol: The following protocol is used to assay the compounds of the disclosure.
The mixture is pre-incubated for 5 minutes at room temperature. The reaction is started by bringing the temperature to 37° C. and adding 16 μl substrate. Total reaction volume is 50 μl.
In the Tables 8, 9 and 10, A≦0.05 μM; 0.05 μM<B≦0.1 μM; 0.1 μM<C≦1 μM; and 1 μM<D≦10 μM.

SMILES | IC50 ([1]; Table 10) [µM] | IC50 ([2]; Table 10) [µM] | further results
O=C(NO)c1cnc(N2CCCN(c3ncc(C(F)(F)F)cc3Cl)CC2)nc1 | 5 to 15 | < 0.05 | 
O=C(NO)c1ccc(OCCN2C(=O)c3ccccc3Oc3ccccc32)c(F)c1 | < 1 | 0.05 to 0.1 | 
O=C(NO)c1ccc(OCCN2C(=O)c3cc(F)ccc3Oc3ccccc32)cc1 | < 1 | < 0.05 | 
O=C(NO)c1ccc(OCCN2C(=O)c3ccccc3Oc3cc(Cl)ccc32)cc1 | 1 to 5 | < 0.05 | 
O=C(NO)c1ccc(OCC(=O)N2Cc3ccccc3Oc3ccccc32)cc1 | 1 to 5 | 0.1 to 1 | 
O=C(NO)c1ccc(C2=Nc3ccccc3S(=O)(=O)c3ccccc32)cc1 |  |  | IC50 ([1]; Table 8): 5 to 15 µM; IC50 ([2]; Table 8): 1 to 10 µM
O=C(NO)c1ccc(C2=Nc3ccccc3[S+]([O-])c3ccccc32)cc1 (stereo not drawn) |  |  | IC50 ([1]; Table 8): 1 to 5 µM; IC50 ([2]; Table 8): 0.1 to 1 µM
O=C(NO)c1ccc(C2=Nc3cncnc3N3CCc4cccc2c43)cc1 |  |  | IC50 ([1]; Table 8): 5 to 15 µM; IC50 ([2]; Table 8): 0.1 to 1 µM
O=C(NO)c1cnc(N2C[C@@H]3C[C@H]2CN3c2cccc(S(F)(F)(F)(F)F)c2)nc1 |  |  | IC50 ([1]; Table 9): 1 to 5 µM; IC50 ([2]; Table 9): < 0.05 µM
O=C(CCCCCCCON=C1c2ccccc2CCc2ccccc21)NO | 1 to 5 | 0.1 to 1 | 
O=C(CCCCCCON=C1c2ccccc2CCc2ccccc21)NO | 1 to 5 | 0.1 to 1 | 
O=C(CCCCCON=C1c2ccccc2CCc2ccccc21)NO | 5 to 15 | 0.1 to 1 | 
O=C(CCCON=C1c2ccccc2CCc2ccccc21)NO | 5 to 15 | 0.1 to 1 | 
O=C(NO)c1ccc(CNC2c3ccccc3CCc3ccccc32)cc1 | 5 to 15 | < 0.05 | 
O=C(NO)c1ccc(CON=C2c3ccccc3CCc3ccccc32)cc1 | 5 to 15 | 0.1 to 1 | 
O=C(/C=C/c1ccc(CNC2c3ccccc3CCc3ccccc32)cc1)NO | 5 to 15 | 0.05 to 0.1 | 
O=C(NO)c1ccc(ON=C2c3ccccc3CCc3ccccc32)cc1 | 5 to 15 | 0.1 to 1 | 
O=C(CCCCCON=c1c2ccccc2ccc2ccccc12)NO | 5 to 15 | 0.1 to 1 | 
O=C(CCCCON=C1c2ccccc2CCc2ccccc21)NO | 5 to 15 | 0.1 to 1 | 
O=C(NO)c1cnc(N2CCN(C3c4ccccc4CCc4ccccc43)CC2)nc1 | 5 to 15 | 0.1 to 1 | 
O=C(NO)c1cnc(NCC2c3ccccc3CCc3ccccc32)nc1 | 5 to 15 | < 0.05 | 
CN(c1ncc(C(=O)NO)cn1)C1c2ccccc2CCc2ccccc21 | 1 to 5 | < 0.05 | 
O=C(NO)c1cnc(NC2c3ccccc3C=Cc3ccccc32)nc1 | < 1 | < 0.05 | 
O=C(CCCCCCN1c2ccccc2Oc2ccccc2S1(=O)=O)NO | 1 to 5 | 0.1 to 1 | 

SMILES | IC50 ([1]; Table 10) [µM] | IC50 ([2]; Table 10) [µM] | further results
O=C(CCCCCCC(=O)NC1c2ccccc2C=Cc2ccccc21)NO | 1 to 5 | 0.1 to 1 | 
O=C(CCCCCC(=O)NC1c2ccccc2C=Cc2ccccc21)NO | 1 to 5 | 0.1 to 1 | 
O=C(NO)c1cnc(NC2c3ccccc3C=C(F)c3ccccc32)nc1 (stereo not drawn) | < 1 | < 0.05 | 
O=C(NO)c1ccc(NC2c3ccccc3CCc3ccccc32)nc1 | < 1 | < 0.05 | 
O=C(NO)c1cnc(C2c3ccccc3C=Cc3ccccc32)nc1 | > 15 | 0.1 to 1 | 
O=C(NO)c1cccc(OCCN2C(=O)c3ccccc3Oc3ccccc32)c1 | > 15 | 0.1 to 1 | 
O=C(NO)c1ccc(OCCN2C(=O)c3ccccc3Oc3ccccc32)cc1 | < 1 | < 0.05 | 
CN1CCC2=C(C1)Oc1ccccc1N(CCOc1ccc(C(=O)NO)cc1)C2=O | < 1 | < 0.05 | 
O=C(NO)c1ccc(OCCN2C(=O)CCOc3ccccc32)cc1 | < 1 | < 0.05 | 
O=C(NO)c1ccc(OCCN2CCOc3ccccc3C2=O)cc1 | 1 to 5 | < 0.05 | 
O=C(NO)c1ccc(OCCN2C(=O)c3cccnc3Oc3ccccc32)cc1 | < 1 | < 0.05 | 
O=C(NO)c1ccc(OCCN2C(=O)c3ccncc3Oc3ccccc32)cc1 | < 1 | < 0.05 | 
O=C(/C=C/c1ccc(CN2C(=O)c3ccccc3Oc3ccccc32)cc1)NO | 1 to 5 | < 0.05 | 
O=C(NO)c1cnc(N2CC3CC2CO3)nc1 (stereo not drawn) [2-(2-oxa-5-azabicyclo[2.2.1]heptan-5-yl)-N-hydroxypyrimidine-5-carboxamide] |  |  | IC50 ([1]; Table 9): 1 to 5 µM; IC50 ([2]; Table 9): 0.1 to 1 µM
N#Cc1cccc(N2CC3CC2CN3c2ncc(C(=O)NO)cn2)c1 (stereo not drawn) [2-(5-(3-cyanophenyl)-2,5-diazabicyclo[2.2.1]heptan-2-yl)-N-hydroxypyrimidine-5-carboxamide] |  |  | IC50 ([1]; Table 9): < 1 µM; IC50 ([2]; Table 9): < 0.05 µM
O=C(NO)c1cnc(NC2c3ccccc3-c3ccccc32)nc1 [2-(9H-fluoren-9-ylamino)-N-hydroxypyrimidine-5-carboxamide] | 5 to 15 | 0.1 to 1 | 
O=C(NO)c1cnc(N2C[C@@H]3C[C@H]2CN3)nc1 [2-((1S,4S)-2,5-diazabicyclo[2.2.1]heptan-2-yl)-N-hydroxypyrimidine-5-carboxamide] |  |  | IC50 ([1]; Table 9): 5 to 15 µM; IC50 ([2]; Table 9): 0.1 to 1 µM
O=C(NO)c1cnc(N2C[C@@H]3C[C@H]2CN3c2ccc3c(c2)OC(F)(F)O3)nc1 [2-((1S,4S)-5-(2,2-difluorobenzo[d][1,3]dioxol-5-yl)-2,5-diazabicyclo[2.2.1]heptan-2-yl)-N-hydroxypyrimidine-5-carboxamide] |  |  | IC50 ([1]; Table 9): 1 to 5 µM; IC50 ([2]; Table 9): < 0.05 µM
O=C(NO)c1cnc(N2C[C@@H]3C[C@H]2CN3C(=O)C(c2ccccc2)c2ccccc2)nc1 [2-((1S,4S)-5-(2,2-diphenylacetyl)-2,5-diazabicyclo[2.2.1]heptan-2-yl)-N-hydroxypyrimidine-5-carboxamide] |  |  | IC50 ([1]; Table 9): 1 to 5 µM; IC50 ([2]; Table 9): 0.05 to 0.1 µM
O=C(NO)c1cnc(N2C[C@@H]3C[C@H]2CN3C(=O)C2CCCCC2)nc1 [2-((1S,4S)-5-(cyclohexanecarbonyl)-2,5-diazabicyclo[2.2.1]heptan-2-yl)-N-hydroxypyrimidine-5-carboxamide] |  |  | IC50 ([1]; Table 9): 1 to 5 µM
O=C(NO)c1cnc(NC(c2ccccn2)c2ccccn2)nc1 [2-(dipyridin-2-ylmethylamino)-N-hydroxypyrimidine-5-carboxamide] | < 1 |  | 
CN(C)CCOc1ccc2c(c1)C(c1ccc(C(=O)NO)cc1)=Nc1ccccc1O2 [(Z)-4-(2-(2-(dimethylamino)ethoxy)dibenzo[b,f][1,4]oxazepin-11-yl)-N-hydroxybenzamide] |  |  | IC50 ([1]; Table 8): > 15 µM
O=C(NO)c1ccc(N2C[C@@H]3C[C@H]2CN3c2nccc(C(F)(F)F)n2)cc1 [N-hydroxy-4-((1S,4S)-5-(4-(trifluoromethyl)pyrimidin-2-yl)-2,5-diazabicyclo[2.2.1]heptan-2-yl)benzamide] |  |  | IC50 ([1]; Table 9): 1 to 5 µM
